Measured values from ChEMBL document CHEMBL2034905, “Synthesis of benzimidazolyl-1,3,4-oxadiazol-2ylthio-N-phenyl (benzothiazolyl) acetamides as antibacterial, antifungal and antituberculosis agents” (Eur J Med Chem, 2012).
In brackets after ≈: the same amount, converted by molar mass.

Assays:
Staphylococcus aureus [1] = experiment: Antibacterial activity against Staphylococcus aureus MTCC 96 at 100 ug/disc by paper disc diffusion technique; type: functional; settings: read-out: IZ
[2] = test system: Mycobacterium tuberculosis; experiment: Antituberculosis activity against Mycobacterium tuberculosis H37Rv by BACTEC MGIT method; type: functional
Bacillus cereus [3] = experiment: Antibacterial activity against Bacillus cereus MTCC 430 by agar streak dilution method; type: functional
Candida albicans [4] = experiment: Antifungal activity against Candida albicans MTCC 183 by agar streak dilution method; type: functional
Klebsiella pneumoniae [5] = experiment: Antibacterial activity against Klebsiella pneumoniae MTCC 109 by agar streak dilution method; type: functional
Bacillus cereus [6] = experiment: Antibacterial activity against Bacillus cereus MTCC 430 at 100 ug/disc by paper disc diffusion technique; type: functional; settings: read-out: IZ
Klebsiella pneumoniae [7] = experiment: Antibacterial activity against Klebsiella pneumoniae MTCC 109 at 100 ug/disc by paper disc diffusion technique; type: functional; settings: read-out: IZ
Aspergillus niger [8] = experiment: Antifungal activity against Aspergillus niger MTCC 282 by agar streak dilution method; type: functional
Staphylococcus aureus [9] = experiment: Antibacterial activity against Staphylococcus aureus MTCC 96 by agar streak dilution method; type: functional
Pseudomonas aeruginosa [10] = experiment: Antibacterial activity against Pseudomonas aeruginosa MTCC 741 by agar streak dilution method; type: functional
Aspergillus clavatus [11] = experiment: Antifungal activity against Aspergillus clavatus MTCC 1323 at 100 ug/disc by paper disc diffusion technique; type: functional; settings: read-out: IZ
Shigella flexneri [12] = experiment: Antibacterial activity against Shigella flexneri MTCC 1457 at 100 ug/disc by paper disc diffusion technique; type: functional; settings: read-out: IZ
Aspergillus clavatus [13] = experiment: Antifungal activity against Aspergillus clavatus MTCC 1323 by agar streak dilution method; type: functional
Escherichia coli [14] = experiment: Antibacterial activity against Escherichia coli MTCC 739 by agar streak dilution method; type: functional
Escherichia coli [15] = experiment: Antibacterial activity against Escherichia coli MTCC 739 at 100 ug/disc by paper disc diffusion technique; type: functional; settings: read-out: IZ
Salmonella typhi [16] = experiment: Antibacterial activity against Salmonella typhi MTCC 733 at 100 ug/disc by paper disc diffusion technique; type: functional, Salmonella enterica subsp. enterica serovar Typhi; settings: Salmonella enterica, read-out: IZ
Candida albicans [17] = experiment: Antifungal activity against Candida albicans MTCC 183 at 100 ug/disc by paper disc diffusion technique; type: functional; settings: read-out: IZ
Shigella flexneri [18] = experiment: Antibacterial activity against Shigella flexneri MTCC 1457 by agar streak dilution method; type: functional
Salmonella typhi [19] = experiment: Antibacterial activity against Salmonella typhi MTCC 733 by agar streak dilution method; type: functional, Salmonella enterica subsp. enterica serovar Typhi; settings: Salmonella enterica
Aspergillus fumigatus [20] = experiment: Antifungal activity against Aspergillus fumigatus MTCC 343 by agar streak dilution method; type: functional
Proteus vulgaris [21] = experiment: Antibacterial activity against Proteus vulgaris MTCC 1771 at 100 ug/disc by paper disc diffusion technique; type: functional; settings: read-out: IZ
Pseudomonas aeruginosa [22] = experiment: Antibacterial activity against Pseudomonas aeruginosa MTCC 741 at 100 ug/disc by paper disc diffusion technique; type: functional; settings: read-out: IZ
Aspergillus fumigatus [23] = experiment: Antifungal activity against Aspergillus fumigatus MTCC 343 at 100 ug/disc by paper disc diffusion technique; type: functional; settings: read-out: IZ
Aspergillus niger [24] = experiment: Antifungal activity against Aspergillus niger MTCC 282 at 100 ug/disc by paper disc diffusion technique; type: functional; settings: read-out: IZ
[25] = test system: Mycobacterium tuberculosis; experiment: Antituberculosis activity against Mycobacterium tuberculosis H37Rv at 6.25 ug/ml by Lowenstein-Jensen method; type: functional
Proteus vulgaris [26] = experiment: Antibacterial activity against Proteus vulgaris MTCC 1771 by agar streak dilution method; type: functional
[27] = test system: Mycobacterium tuberculosis; experiment: Antituberculosis activity against Mycobacterium tuberculosis H37Rv by Lowenstein-Jensen method; type: functional

SMILES	zone of inhibition at 100 µg/disc (Staphylococcus aureus [1])	MIC [2]	MIC (Bacillus cereus [3])	MIC (Candida albicans [4])	MIC (Klebsiella pneumoniae [5])	zone of inhibition at 100 µg/disc (Bacillus cereus [6])	zone of inhibition at 100 µg/disc (Klebsiella pneumoniae [7])	MIC (Aspergillus niger [8])	MIC (Staphylococcus aureus [9])	MIC (Pseudomonas aeruginosa [10])	zone of inhibition at 100 µg/disc (Aspergillus clavatus [11])	zone of inhibition at 100 µg/disc (Shigella flexneri [12])	MIC (Aspergillus clavatus [13])	zone of inhibition at 100 µg/disc (Escherichia coli [15])	zone of inhibition at 100 µg/disc (Salmonella typhi [16])	zone of inhibition at 100 µg/disc (Candida albicans [17])	MIC (Shigella flexneri [18])	MIC (Salmonella typhi [19])	MIC (Aspergillus fumigatus [20])	zone of inhibition at 100 µg/disc (Proteus vulgaris [21])	further results
O=C(CSc1nnc(Cn2cnc3ccccc32)o1)Nc1ccc(I)cc1	17 mm	> 6.25 µg/mL	100 µg/mL (≈ 204 µM)	100 µg/mL (≈ 204 µM)	50 µg/mL (≈ 102 µM)	15 mm	23 mm	100 µg/mL (≈ 204 µM)	50 µg/mL (≈ 102 µM)	25 µg/mL (≈ 50.9 µM)	13 mm	20 mm	100 µg/mL (≈ 204 µM)	12 mm	16 mm	12 mm	50 µg/mL (≈ 102 µM)	100 µg/mL (≈ 204 µM)	100 µg/mL (≈ 204 µM)	22 mm	MIC (Escherichia coli [14]): 100 µg/mL (≈ 204 µM); zone of inhibition at 100 µg/disc (Pseudomonas aeruginosa [22]): 22 mm; zone of inhibition at 100 µg/disc (Aspergillus fumigatus [23]): 17 mm; zone of inhibition at 100 µg/disc (Aspergillus niger [24]): < 10 mm; inhibition at 6.25 µg/mL [25]: 95%; MIC (Proteus vulgaris [26]): 25 µg/mL (≈ 50.9 µM); MIC [27]: 250 µg/mL (≈ 509 µM)
CCOc1ccc(NC(=O)CSc2nnc(Cn3cnc4ccccc43)o2)cc1	14 mm	> 6.25 µg/mL	50 µg/mL (≈ 122 µM)	25 µg/mL (≈ 61.1 µM)	100 µg/mL (≈ 244 µM)	18 mm	< 10 mm	50 µg/mL (≈ 122 µM)	50 µg/mL (≈ 122 µM)	100 µg/mL (≈ 244 µM)	16 mm	22 mm	100 µg/mL (≈ 244 µM)	23 mm	21 mm	24 mm	25 µg/mL (≈ 61.1 µM)	50 µg/mL (≈ 122 µM)	100 µg/mL (≈ 244 µM)	25 mm	MIC (Escherichia coli [14]): 25 µg/mL (≈ 61.1 µM); zone of inhibition at 100 µg/disc (Pseudomonas aeruginosa [22]): 16 mm; zone of inhibition at 100 µg/disc (Aspergillus fumigatus [23]): 11 mm; zone of inhibition at 100 µg/disc (Aspergillus niger [24]): 17 mm; inhibition at 6.25 µg/mL [25]: 98%; MIC (Proteus vulgaris [26]): 12.5 µg/mL (≈ 30.5 µM); MIC [27]: 50 µg/mL (≈ 122 µM)
O=C(CSc1nnc(Cn2cnc3ccccc32)o1)Nc1ccccc1	12 mm	> 6.25 µg/mL	100 µg/mL (≈ 274 µM)	100 µg/mL (≈ 274 µM)	100 µg/mL (≈ 274 µM)	< 10 mm	13 mm	100 µg/mL (≈ 274 µM)	100 µg/mL (≈ 274 µM)	50 µg/mL (≈ 137 µM)	< 10 mm	13 mm	100 µg/mL (≈ 274 µM)	13 mm	< 10 mm	< 10 mm	100 µg/mL (≈ 274 µM)	100 µg/mL (≈ 274 µM)	100 µg/mL (≈ 274 µM)	13 mm	MIC (Escherichia coli [14]): 100 µg/mL (≈ 274 µM); zone of inhibition at 100 µg/disc (Pseudomonas aeruginosa [22]): 21 mm; zone of inhibition at 100 µg/disc (Aspergillus fumigatus [23]): 13 mm; zone of inhibition at 100 µg/disc (Aspergillus niger [24]): < 10 mm; inhibition at 6.25 µg/mL [25]: 95%; MIC (Proteus vulgaris [26]): 100 µg/mL (≈ 274 µM); MIC [27]: 500 µg/mL (≈ 1370 µM)
CC(=O)N1CCN(c2ccc(OCC3COC(Cn4ccnc4)(c4ccc(Cl)cc4Cl)O3)cc2)CC1 (stereo not given) [KETOCONAZOLE]	–	–	–	1.56 µg/mL (≈ 2.94 µM)	–	–	–	1.56 µg/mL (≈ 2.94 µM)	–	–	31 mm	–	0.78 µg/mL (≈ 1.47 µM)	–	–	33 mm	–	–	0.78 µg/mL (≈ 1.47 µM)	–	zone of inhibition at 100 µg/disc (Aspergillus fumigatus [23]): 29 mm; zone of inhibition at 100 µg/disc (Aspergillus niger [24]): 30 mm
O=C(O)c1cn(C2CC2)c2cc(N3CCNCC3)c(F)cc2c1=O [CIPROFLOXACIN]	30 mm	–	0.39 µg/mL (≈ 1.18 µM)	–	0.78 µg/mL (≈ 2.35 µM)	31 mm	33 mm	–	1.56 µg/mL (≈ 4.71 µM)	0.78 µg/mL (≈ 2.35 µM)	–	32 mm	–	32 mm	30 mm	–	1.56 µg/mL (≈ 4.71 µM)	0.39 µg/mL (≈ 1.18 µM)	–	31 mm	zone of inhibition at 100 µg/disc (Pseudomonas aeruginosa [22]): 33 mm; MIC (Proteus vulgaris [26]): 0.39 µg/mL (≈ 1.18 µM)
NNC(=O)c1ccncc1 [ISONIAZID]	–	0.2 µg/mL (≈ 1.46 µM)	–	–	–	–	–	–	–	–	–	–	–	–	–	–	–	–	–	–	–
